Read-outs that look alike come from different tables or passages of the source.
Key:
[1] = Stability in DMEM by 195Pt NMR; format: physicochemical; settings: DMSO-d6/DMEM 1:4, 37 °C, 0, 24, 48, 120 h
Source text: We then decided to evaluate the stability of the two Pt(IV) complexes in the medium (DMEM) used to carry out the in vitro experiments, monitoring their kinetics by ^195Pt NMR at different times to evaluate the possible species formed over time. DMEM is supplemented with proteins and other molecules essential for cell growth (Experimental Section). Thus, similar to the reduction assays, we analyzed the Pt(II)/Pt(IV) region where the expected species appear. […] Both Pt(IV)/Pt(II) signals disappeared after 48 h, most likely again because of the binding of the complex to the proteins.
To each solution was then slowly and carefully added 300 μL of DMEM to avoid the precipitation of the complex, reaching a final concentration of 1:4 (DMSO-d6/DMEM). All these mixtures were performed using a thermoshaker. Each sample was monitored by ^195Pt NMR at 0, 24, 48, and 120 h.

[2] = test system: HIEC6 human healthy intestinal cells; assay: MTT cell viability assay, HIEC6; format: cell-based; settings: for IC50: 48 h
Protocol: HIEC6 human healthy intestinal cells and HCT 116 and HT-29 human colon cancer cells were supplied by ATCC. Colon cancer cells were cultured in Dulbecco’s modified Eagle’s medium (DMEM) for HCT 116 and HT-29 supplemented with fetal bovine serum (10%). HIEC6 cells were cultured in Opti-MEM supplemented with fetal bovine serum (4%), HEPES (20 mM), glutamine (10 mM), and epidermal growth factor (10 ng/mL). Cells were maintained at 37 °C in a humidified atmosphere containing 5% CO2. Cells were seeded at 30% confluence in DMEM for HCT 116 and in Opti-MEM for HIEC6; after cell adhesion, HIEC6 cells were cultured in DMEM for 24h before being treated. All cells were treated with the indicated components at concentrations of 0.25–50 μM and incubated for 1–5 days as specified.
The MTT assay relies on a colorimetric reaction based on the capacity of living cells to reduce MTT to formazan and change the color to purple, which is easily measured by colorimetry. This assay estimates the cellular viability after the indicated treatments. Cells were treated with MTT (1:10 in culture medium) and incubated at 37 °C for 3 h for HCT 116 and HT-29 or 6 h for HIEC6. After removal of the medium, the formazan was resuspended in DMSO, transferred to p96 plates, and analyzed by a SpectraFLUOR (Tecan) at 542 nm. In all cases, viability was measured in duplicates of each point in three independent experiments.

[3] = In vivo toxicity and tolerance in tumor-bearing mice; set-up: species or system athymic nude Foxn1nu mice
Source text: The in vitro results encouraged us to explore the translational potential in a preclinical in vivo model of nude mice with grafted tumor cells. […] Tumor growth was monitored until tumors in the control group reached the ethically allowed size. […] On the other hand, many types of cancer cause a general increase in lactate dehydrogenase (LDH), and it is considered a nonspecific tumor marker.[57] Both treatments reduced LDH levels compared to those of untreated animals (PBS), reflecting the response to treatment.
To establish the subcutaneous tumor, 2 × 10^6 HCT 116 colon carcinoma cells were resuspended 1:1 in culture media and Matrigel (BD) and injected subcutaneously. Six to eight week old female athymic nude Foxn1nu mice (Harlan Iberica) were used for each point. […] Two therapeutic approaches were compared: acute and chronic (see diagram in Figure 5). Acute treatment was performed (three injections of 10 mg/kg); chronic treatment relied on injections of 1 mg/kg every 3–4 days. […] Tumor growth was monitored by personnel unaware of the group distribution. Experiments were finalized when control animals achieved the maximum tumor size approved by the Ethical Committee. Animals were sacrificed by euthanasia by CO2 inhalation. Selected organs were collected from each animal for histopathological analysis. Samples were fixed in 4% paraformaldehyde for 2 h followed by cold 70% ethanol. Plasma serum was collected to determine hepatic and renal toxicity of treatments using a SPIN200E automatic bioanalyzer (Spinreact).

HCT 116 cells = assay: Trypan blue exclusion test; format: cell-based, human; settings: HCT 116, 0.5 μM, 2 days
Protocol: HCT 116 cells were harvested by trypsinization followed by centrifugation at 500g for 5 min. The cell pellet was resuspended in 1 mL of PBS. Equal volumes of trypan blue (Bio-Rad cat. no. 1450021) 0.4% and cell suspension were mixed and incubated for 1–3 min at room temperature, and cell counting was carried out using a TC20 Automated Cell Counter (Bio-Rad cat. no. 1450102). The percentage of viable cells was calculated by dividing the number of viable cells per milliliter by the number total of cells per milliliter) × 100. Representative images were acquired using a Zeis light microscope with a 20× objective.

[4] = mice after treatment, versus cisplatin

CC(C)N.CC(C)N.CCO[Si](CCCNC(=O)[O][Pt]([Cl])([Cl])[O]C(=O)NCCC[Si](OCC)(OCC)OCC)(OCC)OCC [Pt(IV)-biSi-2, cis-Dichloro(diisopropylamine)-trans-[3-(triethoxysilyl)propylcarbamate]platinum(IV)]
Stability in DMEM (Pt(IV) signal in 195Pt NMR) [1]: suffered a marked decrease after 24 h
Fold higher concentration needed to reduce nontumorigenic intestinal cell viability by 50% ([2]; IC50 HIEC6 versus IC50 HCT 116): 3.7 fold
Cell viability, HIEC6 0.5uM 2 days ([2]; MTT, 0.5 uM, 2 days): 92.5 ± 0.9%
Cell viability, HIEC6 0.5uM 5 days ([2]; MTT, 0.5 uM, 5 days): 84.1 ± 4.7%
Reduction in viability of healthy cells (HIEC6) ([2]; MTT, 5 μM, 2 days): 60%
Cell viability, HIEC6 5uM 2 days ([2]; MTT, 5 uM, 2 days, (final complexes, Figure 3B)): 41.2 ± 1.5%
IC50 ([2]; MTT, Figure 3C and text, read-out: IC50 (μM), HIEC6): 3.47 µM
IC50 ([2]; MTT, supplementary CSV, read-out: IC50 (uM) HIEC6): 3.5 ± 0.6 µM
Cell viability, HIEC6 […] 2 days ([2]; MTT, 2 days): 97.8 ± 4.0%
Cell viability, HIEC6 […] 2 days ([2]; MTT, second (last) column of this head): 98.8 ± 6.1%
Side effects (weight loss greater than 5% or abnormal postures) or deaths ([3]; acute and chronic treatment): No side effects (weight loss greater than 5% or abnormal postures) or deaths of the mice were observed
Hepatic toxicity (uric acid and GPT levels in plasma) [3, 4]: significantly lower
Renal toxicity (creatinine levels in plasma) [3, 4]: significantly lower
Reduction of viability by trypan blue staining (HCT 116 cells): approximately 60%

Reference: paper PMC11056991, “Promising Anticancer Prodrugs Based on Pt(IV) Complexes with Bis-organosilane Ligands in Axial Positions” (Journal of Medicinal Chemistry, 2024)
